Results from article PMC9820303, “^αN-Acetyl β-Endorphin Is an Endogenous Ligand of σ1Rs That Regulates Mu-Opioid Receptor Signaling by Exchanging G Proteins for σ2Rs in σ1R Oligomers” (International Journal of Molecular Sciences, 2022).
“Also recorded” adds a separate entry of the source.

Target: T1, σ1R-BiP (Mus musculus, UniProt O55242)
T1 construct: The coding region of the full-length murine σ1R (AF004927); GST (N, cleaved yes); host or cells: E. coli BL21 (KRX) for σ1R
Assay: In vitro σ1R-BiP association of recombinant proteins (Western blot)
Type: biochemical
Details: for effect on σ1R-BiP association: increasing concentrations, 30 min RT, vs control without ligand; for activity at σ1R-BiP against agonists / β-End 1–31: 1 nM β-End 1–31 with increasing competitor (Figure S10)
Method: Figure 7 Effect of β-End 1–31, ^αN-acetyl β-End 1–31 and their N-terminal derivatives on σ1R-σ2R, σ1R-NR1 C1 and σ1R-BiP associations. Amino acid sequence of β-End 1–31 showing derivatives 1–26 and 1–27. (A) HaloLink-attached σ2Rs were incubated for 30 min at RT in the presence of σ1Rs (100 nM) in 300 μL of 50 mM Tris-HCl (pH 7.4), 0.2% CHAPS, and 2.5 mM CaCl2. After removing the unbound σ1R proteins, the effects of increasing the peptide concentrations on σ1R-σ2R associations were studied. At the end of the incubation, protein complexes bound to HaloLink-σ2R were obtained by centrifugation, washed three times, solubilized in 2× Laemmli buffer containing β-mercaptoethanol, resolved by SDS-PAGE, and analyzed by Western blotting (for more details, see Section 4). This protocol was also used to assess the effect of ligands on (B) σ1R-NR1 C1 and (C) σ1R-BiP associations. Data were compared to that of the control, which was obtained in the absence of ligands. (A–C) Data are the mean ± SD, n = 3. (D) The β-End 1–31 structural models were predicted by Novafold (DNASTAR Lasergene protein v.17, Inc., Madison, WI, USA). Ribbon model: The 3D structure, charge distribution and hydrophobicity map of β-End 1–31 are shown. Positive charges are shown in red and negative charges in blue. Polar surfaces are shown in yellow, and nonpolar surfaces are shown in orange. Linear model: the opioid (1–5) and flexible region (8–11) sequences are shown in green and orange, respectively, and the amphiphilic helix (15–25) is shown in pink.
The recombinant σ1R (100 nM) was incubated either with Haloprotein (negative control) or together with the immobilized σ2R, NR1 C0-C1-C2 or BiP proteins in 300 µL of a buffer containing 50 mM Tris-HCl (pH 7.4) and 0.2% CHAPS in the presence of 2.5 mM CaCl2 for 30 min at RT. After removal of the unbound σ1R, the agarose-attached complexes were incubated for 30 min with rotation at RT in the presence of increasing concentrations of the ligands in a final reaction volume of 300 µL [50 mM Tris-HCl (pH 7.4), 2.5 mM CaCl2 and 0.2% CHAPS]. Ligands were usually dissolved in aqueous solutions; however, when an organic solvent such as DMSO was required to incorporate, e.g., pregnenolone sulfate, the solvent remained below 1% in the assay buffer. Agarose pellets containing the bound proteins were obtained by centrifugation, washed and resuspended thrice in the presence of 2.5 mM CaCl2, solubilized in 2× Laemmli buffer plus β-mercaptoethanol, and analyzed by Western blotting.
Because all the assays were performed with recombinant proteins, the immune signals provided a single band of the expected size, which was used for the subsequent densitometry analysis. Accordingly, no other regions of the blots provided information and were routinely excluded from the analysis.
Figure S8. Effect of the physiological and nonphysiological sequences of β-End 1-31 and classical σ1R ligands on BiP-σ1R, σ2R-σ1R and NR1 C1-σ1R associations . Agarose-BiP was loaded with σ1Rs, and after the unbound σ1Rs were removed, the agarose-BiP-σ1R complexes were incubated in the absence (control) and presence of increasing concentrations of (A) β-End 1-31 C-terminal physiological derivatives and (B) classical σ1R ligands. C) Agarose-σ2R loaded with σ1Rs was incubated in the absence (control) and with nonphysiological derivatives of β-End 1-31. D) Agarose-NR1 C1 loaded with σ1Rs were incubated in the absence (control) and with nonphysiological derivatives of β-End 1-31. A-D) The σ1Rs that remained attached to the agarose complexes were evaluated by Western blotting. The […]
(1 picture or pasted object on this page, not shown here)
Figure S10. Effect of σ1R agonist/antagonist ligands on σ1R-BiP associations. Agarose-attached BiP proteins were incubated for 30 min in the presence of recombinant σ1R (100 nM) proteins in 300 μL of 50 mM Tris-HCl (pH 7.4), 0.2% CHAPS, and 2.5 mM CaCl2. After the unbound σ1R proteins were […]

T1 sequence (O55242 whole entry): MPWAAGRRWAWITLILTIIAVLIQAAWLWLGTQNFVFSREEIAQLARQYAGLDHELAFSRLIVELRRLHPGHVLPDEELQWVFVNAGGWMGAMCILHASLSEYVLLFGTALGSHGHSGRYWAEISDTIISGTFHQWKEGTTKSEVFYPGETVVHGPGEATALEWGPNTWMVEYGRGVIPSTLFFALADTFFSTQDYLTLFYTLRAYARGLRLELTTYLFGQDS

For `Br.Br.CN(C)CCN(C)CCc1ccc(Cl)c(Cl)c1` [BD1047, N′-[2-(3,4-dichlorophenyl)ethyl]-N,N,N′-trimethylethane-1,2-diamine;dihydrobromide, reference compound], the “effect on σ1R-BiP association” value was “did the opposite”.

In the case of `COC(=O)[C@]1(c2ccc(C)cc2)C[C@@H]1CN1CCC(O)(c2ccccc2)CC1` [PPCC, (1R,2S/1S,2R)-2-[4-hydroxy-4-phenylpiperidin-1-yl)methyl]-1-(4-methylphenyl) cyclopropanecarboxylate, reference compound], the “effect on σ1R-BiP association” value is reported as “impaired σ1R associations with σ2R and BiP”.

In the case of `Cl.O=C(OCCN1CCOCC1)C1(c2ccccc2)CCCCC1` [PRE084, 2-(4-morpholinethyl)-1-phenylcyclohexanecarboxylate hydrochloride, reference compound], the “effect on σ1R-BiP association” value is reported as “impaired σ1R associations with σ2R and BiP”.

In the case of `Cc1cc(OCCN2CCOCC2)nn1-c1ccc2ccccc2c1` [S1RA], the “effect on σ1R-BiP association” value is reported as “did the opposite”.

In the case of “KKGE [β-End 28–31, C-terminal tetrapeptide of β-End 1–31]”, the “activity at σ1R-BiP against agonists / β-End 1–31” value is reported as “neither exhibited activity at σ1R-BiP nor reduced the effect of β-End 1–31” and the “effect on σ1R-BiP association” value is reported as “weak direct effect on σ1R-BiP complexes”.

In the case of “YKKGE [β-End 27–31, C-terminal pentapeptide of β-End 1–31]”, the “effect on σ1R-BiP association” value is reported as “increased”.

“^αN-acetyl β-End 1–31: β-End 1–31 acetylated at N terminal Y1, α position” was tested, and the “activity at σ1R-BiP against agonists / β-End 1–31” value was “neither exhibited activity at σ1R-BiP nor reduced the effect of β-End 1–31” and the “effect on σ1R-BiP association” value was “weak at σ1R-BiP associations; also recorded: inactive”.

In the case of “β-End 1–26: β-End 1–31 derivative without 5 C-terminal residues (YGGFMTSEKSQTPLVTLFKNAIIKNA; Beta-endorphin; UniProt P01189 237-262, looked up, fragment)”, the “effect on σ1R-BiP association” value is reported as “disrupted these complexes with potencies in the pM/nM range”.

With “β-End 1–27: β-End 1–31 derivative without 4 C-terminal residues (YGGFMTSEKSQTPLVTLFKNAIIKNAY; Beta-endorphin; UniProt P01189 237-263, looked up, fragment)” the “effect on σ1R-BiP association” value was “disrupted these complexes with potencies in the pM/nM range”.
